One assay addresses T1, endogenous mouse MAGL (Mus musculus, UniProt O35678).
T1 construct: on endogenous MAGL, we applied an ABPP assay with mouse brain membrane proteome; from tissue; host or cells: mouse brain membrane fraction
T1 sequence (O35678 1-303): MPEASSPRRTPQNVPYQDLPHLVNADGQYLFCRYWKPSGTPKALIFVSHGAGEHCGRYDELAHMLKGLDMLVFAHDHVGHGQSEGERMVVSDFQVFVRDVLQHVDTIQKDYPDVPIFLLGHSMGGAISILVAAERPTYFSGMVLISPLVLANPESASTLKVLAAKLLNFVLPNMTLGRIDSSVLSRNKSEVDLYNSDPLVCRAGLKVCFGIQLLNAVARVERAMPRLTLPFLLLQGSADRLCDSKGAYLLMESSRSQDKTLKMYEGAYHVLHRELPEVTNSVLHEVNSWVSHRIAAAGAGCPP
In words: Competitive ABPP, mouse brain membrane proteome: MAGL band. Conditions: FP-TAMRA 250 nM. It counts as biochemical. The protocol:
(§1) Mouse brains were isolated according to guidelines approved by the ethical committee of Western China Hospital, Sichuan University (No. 2021765A). Mouse brains were dounce homogenized lysis buffer (20 mM HEPES, 2 mM DTT, 1 mM MgCl2, 25 U/mL benzonase) and incubated on ice for 15 min, followed by low-speed spin (2,500 g, 3 min, 4 C) to remove debris. The supernatant was subjected to ultracentrifugation (100,000 g, 45 min, 4°C) to generate the cytosolic fraction in the supernatant, as well as the membrane fraction as a pellet. After removal of the soluble supernatant, the pellet was resuspended in storage buffer (20 mM HEPES, 2 mM DTT) by pipetting. Total protein concentrations in membrane and soluble fractions were determined using a Qubit protein assay (Invitrogen). The obtained samples were stored at −80°C until further use.
The competitive ABPP selectivity assay was performed according to the previously reported protocol. Briefly, mouse brain membrane proteome (2 mg/ml, 20 µl) was preincubated for 30 min with 0.5 µl of DMSO (vehicle) or inhibitor (100 μM, finial concentration). Subsequently, the proteome-inhibitor complex was treated with the activity-based probe FP-TAMRA (250 nM, final concentration) for 20 min. […] The gels were then scanned and analyzed using a ChemiDoc MP system (Cy3 settings, BioRad). All the samples were measured and duplicated.

Assay [1] relates to serine hydrolases labeled by FP-TAMRA in mouse brain membrane proteome. Briefly: Competitive ABPP selectivity assay, mouse brain membrane proteome. It counts as biochemical. Conditions: 100 µM, FP-TAMRA 250 nM. The procedure: as §1, with “Mouse” for “Mouse brains were isolated according to guidelines approved by the ethical committee of Western China Hospital, Sichuan University (No. 2021765A). Mouse”
The competitive ABPP selectivity assay was performed according to the previously reported protocol. Briefly, mouse brain membrane proteome (2 mg/ml, 20 µl) was preincubated for 30 min with 0.5 µl of DMSO (vehicle) or inhibitor (100 μM, finial concentration). […] The reactions were then quenched by 10 µl sample buffer (×4). The obtained samples were directly loaded and resolved on SDS-PAGE gel (10% acrylamide). The gels were then scanned and analyzed using a ChemiDoc MP system (Cy3 settings, BioRad). All the samples were measured and duplicated.

Broadly, the inhibition is the change of the read-out against control, counted positive when it falls.

For `C[C@H]1COC2=C1C(=O)C(=O)c1c2ccc2c1CCCC2(C)C` [compound 23, Cryptotanshinone], the inhibition at 100 µM at endogenous mouse MAGL was 50 to 60%. In assay [1], the “selectivity profile over serine hydrolases” value is listed as “broad-spectrum inhibitors that cross-reacted with multiple serine hydrolases”.

The values are drawn from publication PMC9465256, “Discovering monoacylglycerol lipase inhibitors by a combination of fluorogenic substrate assay and activity-based protein profiling” (Frontiers in Pharmacology, 2022).
